The results in this text go back to PubChem BioAssay AID1259411 (Chemical Carcinogenesis Research Information System (CCRIS), 2018).

Activity calls are given as the source filed them. No rule for the calls is given here.

In this data set the test system is rodent carcinogenicity bioassays, tumor incidence. Description: CCRIS carcinogenicity studies. The essentials: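 NCI-built, expert-reviewed records of carcinogenicity and related test outcomes (mutagenicity, tumor promotion/inhibition) compiled from published and report sources, historical span 1985-2011, not updated.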

In the case of `CN1CSC(=S)N(C)C1`, the carcinogen call is “inactive; negative” (Species: Mouse, Strain/Sex: B6C3F1/Female (50/Group), Route: Oral, Dose: 0, 6, 22, 93 mg/kg in diet for 78 wk, study duration 78 wk, Dose: 0, 6, 22, 93 mg/kg in diet for 78 wk, study duration 78 wk); “inactive; negative” (Species: Mouse, Strain/Sex: B6C3F1/Male (50/Group), Route: Oral, Dose: 0, 4, 16, 68 mg/kg in diet for 78 wk, study duration 78 wk, Dose: 0, 4, 16, 68 mg/kg in diet for 78 wk, study duration 78 wk); “inactive; negative” (Species: Rat, Strain/Sex: Wistar/Female (50/Group), Route: Oral, Dose: 0, 0.35, 1.37, 5.66 mg/kg in diet for 2 yr, study duration 2 yr); “inactive; negative” (Species: Rat, Strain/Sex: Wistar/Male (50/Group), Route: Oral, Dose: 0, 0.27, 1.08, 4.43 mg/kg in diet for 2 yr, study duration 2 yr).

Regarding `CN(N=O)c1ccccc1`, the carcinogen call is “active; positive” (Species: HAMSTER, Strain/Sex: SYRIAN/FEMALE, Route: GAVAGE, Dose: 0, 5 MG/KG 1/WK FOR 50 WK (TOTAL DOSE: 0; 1.8 MMOL) (STUDY DURATION: LIFETIME), Dose: 0, 5 MG/KG 1/WK FOR 50 WK (TOTAL DOSE: 0; 1.8 MMOL) (STUDY DURATION: LIFETIME), Tumor Site: Type of Lesion: LIVER: CHOLANGIOMA); “active; positive” (Species: MOUSE, Strain/Sex: SWISS/MALE,FEMALE, Route: ORAL, Dose: 0.070 G/L IN DRINKING WATER FOR 28 WK, Tumor Site: Type of Lesion: LUNG: ADENOMA); “active; positive” (Species: RAT, Strain/Sex: ALBINO/MALE,FEMALE, Route: ORAL, Dose: 2.0 MG IN 10 ML DRINKING WATER (AVE) 5/WK FOR 52 WK, Tumor Site: Type of Lesion: ESOPHAGUS: PAPILLOMA, SQUAMOUS CELL CARCINOMA, FORESTOMACH: PAPILLOMA, SQUAMOUS CELL CARCINOMA, MOUTH: PAPILLOMA, SQUAMO, Tumor Site: Type of Lesion: ESOPHAGUS: PAPILLOMA, SQUAMOUS CELL CARCINOMA, FORESTOMACH: PAPILLOMA, SQUAMOUS CELL CARCINOMA, MOUTH: PAPILLOMA, SQUAMO); “active; positive” (Species: RAT, Strain/Sex: STRAIN-BD, Route: ORAL, Dose: 14 MG/KG/D IN DIET FOR 250 D (AVE TOTAL DOSE: 3.4 G/KG), Tumor Site: Type of Lesion: ESOPHAGUS: SQUAMOUS CELL CARCINOMA); “active; positive” (Species: RAT, Strain/Sex: STRAIN-CB/MALE,FEMALE, Route: ORAL, Dose: 5 MG AS 0.2% FOR 7 MO THEN 2.5 MG AS 0.1% IN DRINKING WATER 1/D, 6/WK, Tumor Site: Type of Lesion: ESOPHAGUS: BENIGN TUMOR OR MALIGNANT TUMOR).

`Nc1ccc2c(c1)Cc1ccccc1-2`: the carcinogen call reads like this: (Species: MOUSE, Strain/Sex: MALE,FEMALE, Route: DERMAL, Dose: 4% SOLN IN ACETONE, 90 APPLICATIONS (TOTAL DOSE: 270 MG), Tumor Site: Type of Lesion: LIVER: HEPATOMA, INTESTINES) “active; positive”; (Species: RAT, Strain/Sex: F344/MALE, Route: INJECTION, Dose: 0, 1 UMOL IN 0.5 ML OF SOLUTION CONTAINING 0.4 ML PHOSPHATE BUFFERED SALINE/ GENTAMYCIN (PH 7) AND 0.1 ML DMSO INJECTED) “inactive; negative”; (Species: RAT, Strain/Sex: HOLTZMAN/FEMALE, Route: ORAL, Dose: 1.62 MMOL/KG IN DIET, Tumor Site: Type of Lesion: MAMMARY GLAND, EAR (DUCT)) “active; positive”; (Species: RAT, Strain/Sex: HOLTZMAN/MALE, Route: ORAL, Dose: 1.62 MMOL/KG IN DIET, Tumor Site: Type of Lesion: LIVER, EAR (DUCT), INTESTINES (SMALL), Tumor Site: Type of Lesion: LIVER, EAR (DUCT), INTESTINES (SMALL)) “active; positive”; (Species: RAT, Strain/Sex: WISTAR/MALE, Route: DERMAL, Dose: 4% SOLN IN ACETONE 3/WK FOR 30 WK (TOTAL DOSE: 270 MG), Tumor Site: Type of Lesion: LIVER: HEPATOCELLULAR CARCINOMA, EAR (ZYMBAL GLAND): CARCINOMA) “active; positive”.

With `Cl`, the carcinogen call (Species: RAT, Strain/Sex: F344/MALE, Route: ORAL, Dose: 0, 0.25, 1, 4% IN DIET FOR 2 YR (STUDY DURATION: 2 YR), Dose: 0, 0.25, 1, 4% IN DIET FOR 2 YR (STUDY DURATION: 2 YR)) was “inactive; negative”.

For `F`, the carcinogen call is “inactive; negative” (Species: MOUSE, Strain/Sex: B6C3F1/FEMALE, Route: ORAL, Dose: 0, 25, 100, 175 PPM IN DRINKING WATER FOR 103 WK (STUDY DURATION: 103 WK), Dose: 0, 25, 100, 175 PPM IN DRINKING WATER FOR 103 WK (STUDY DURATION: 103 WK)); “inactive; negative” (Species: MOUSE, Strain/Sex: B6C3F1/MALE, Route: ORAL, Dose: 0, 25, 100, 175 PPM IN DRINKING WATER FOR 103 WK (STUDY DURATION: 103 WK), Dose: 0, 25, 100, 175 PPM IN DRINKING WATER FOR 103 WK (STUDY DURATION: 103 WK)); “equivocal” (Species: MOUSE, Strain/Sex: F344/MALE, Route: ORAL, Dose: 0, 25, 100, 175 PPM IN DRINKING WATER FOR 103 WK (STUDY DURATION: 103 WK), Dose: 0, 25, 100, 175 PPM IN DRINKING WATER FOR 103 WK (STUDY DURATION: 103 WK), Tumor Site: Type of Lesion: BONE: OSTEOSARCOMA); “inactive; negative” (Species: RAT, Strain/Sex: F344/FEMALE, Route: ORAL, Dose: 0, 25, 100, 175 PPM IN DRINKING WATER FOR 103 WK (STUDY DURATION: 103 WK), Dose: 0, 25, 100, 175 PPM IN DRINKING WATER FOR 103 WK (STUDY DURATION: 103 WK)); “inactive; negative” (Species: RAT, Strain/Sex: SPRAGUE-DAWLEY/FEMALE, Route: ORAL, Dose: 0, 4, 10, 25 MG/KG/D ADDED TO LOW-FLUORIDE DIET FOR DURATION OF STUDY (STUDY DURATION: 99 WK), Dose: 0, 4, 10, 25 MG/KG/D ADDED TO LOW-FLUORIDE DIET FOR DURATION OF STUDY (STUDY DURATION: 99 WK)); “inactive; negative” (Species: RAT, Strain/Sex: SPRAGUE-DAWLEY/MALE, Route: ORAL, Dose: 0, 4, 10, 25 MG/KG/D ADDED TO LOW-FLUORIDE DIET FOR DURATION OF STUDY (STUDY DURATION: 95 WK), Dose: 0, 4, 10, 25 MG/KG/D ADDED TO LOW-FLUORIDE DIET FOR DURATION OF STUDY (STUDY DURATION: 95 WK)).

As to `N[C@@H](CCC(=O)NNc1ccc(CO)cc1)C(=O)O`, the carcinogen call (Species: MOUSE, Strain/Sex: SWISS/FEMALE, Route: SUBCUTANEOUS, Dose: 0, 100 UG IN 0.01 ML PHYSIOLOGICAL SALINE 1/WK FOR 5 WK (STUDY DURATION: LIFETIME)) is “inactive; negative”; the carcinogen call (Species: MOUSE, Strain/Sex: SWISS/FEMALE, Route: SUBCUTANEOUS, Dose: 0, 100 UG IN 0.01 ML PHYSIOLOGICAL SALINE ONCE (STUDY DURATION: LIFETIME)) is “inactive; negative”; the carcinogen call (Species: MOUSE, Strain/Sex: SWISS/MALE, Route: SUBCUTANEOUS, Dose: 0, 50 UG IN 0.01 ML PHYSIOLOGICAL SALINE ONCE (STUDY DURATION: LIFETIME)) is “inactive; negative”; the carcinogen call (Species: MOUSE, Strain/Sex: SWISS/MALE, Route: SUBCUTANEOUS, Dose: 0, 100 UG IN 0.01 ML PHYSIOLOGICAL SALINE 1/WK FOR 5 WK (STUDY DURATION: LIFETIME)) was “inactive; negative”.

As for `O=[N+]([O-])c1ccc2c(ccc3c4ccccc4ccc23)c1`, the carcinogen call was “inactive; negative” (Species: MOUSE, Strain/Sex: ICR/FEMALE, Route: INTRAPERITONEAL, Dose: 0, 100 NMOL (TOTAL DOSE) ADMINISTERED IN 3 SUBDOSES OF 1/7, 2/7, AND 4/7 ON DAYS 1, 8 AND 15 OF LIFE, RESPECTIVELY (STUD) and “inactive; negative” (Species: MOUSE, Strain/Sex: ICR/MALE, Route: INTRAPERITONEAL, Dose: 0, 100 NMOL (TOTAL DOSE) ADMINISTERED IN 3 SUBDOSES OF 1/7, 2/7, AND 4/7 ON DAYS 1, 8 AND 15 OF LIFE, RESPECTIVELY (STUD).

Regarding `CCCc1ccc2c(c1)OCO2`, the carcinogen call runs as follows: (Species: MOUSE, Route: ORAL, Tumor Site: Type of Lesion: LIVER, LUNG) “active; positive”; (Species: RAT, Route: ORAL, Tumor Site: Type of Lesion: ESOPHAGUS) “active; positive”.
